Measured values from patent US20250179031A1, “PROTEASOME ENHANCERS AND USES THEREOF” (Board of Trustees of Michigan State University, priority 2022, published 2025).

Tests used:
Assay type in all cases: biochemical
human 20S proteasome = system: T1, human 20S proteasome; experiment: Fluorogenic peptide degradation 20S proteasome activity assay, combination of CT-L, T-L and Casp-L substrates; details: for Fold increase over vehicle (30 μM), enhancement of 20S activity: 30 μM compound, mixture of the three substrates, 15 min pre-treatment at 37° C., 1 h read
T1 construct: purchased Boston Biochem, Inc. (Cambridge, MA)
Method: (§1) Activity assays were carried out in a 100 μL reaction volume. Different concentrations (40-1.25 μM) of test compounds (1 μL) were added to a black flat/clear bottom 96-well plate containing 2 nM of human constitutive 20S proteasome ([…]), in 50 mM Tris-HCl at pH 7.8, 100 mM NaCl and allowed to incubate for 15 min at 37° C. Fluorogenic substrates (5 μL) were then added and the enzymatic activity measured at 37° C. on a SpectraMax M5e spectrometer by measuring the change in fluorescence unit per minute for 1 hour at 380-460 nm. The fluorescence units for the vehicle control were set at a 100%, and the ratio of drug-treated sample set to that of vehicle control was used to calculate the fold change in enzymatic activity. The fluorogenic substrates used were one of the following: Suc-LLVY-AMC (CT-L activity, 20 μM), Z-LLE-AMC (Casp-L activity, 20 μM), Boc-LRR-AMC (Trp-L activity, 40 μM) or a combination of the three substrates each at 6.67 μM. Results were analysed and plotted using GraphPad Prism 7.
(§2) Screening of this library of dihydroquinazolines was performed in two stages. In the first stage, each compound was screened at three concentrations (3, 10 and 30 μM) to select lead agents. Secondly, lead agents were further analyzed using full concentration responses (6-point titration ranging from 1.25 μM-40 μM) for each of the three proteolytic activities of the 20S proteasome and a combination thereof. The proteolytic activity of the 20S proteasome can be monitored in vitro by measuring the cleavage of fluorogenic peptide substrates for the different catalytic sites as an increase in 7-amino-4-methycoumarin (AMC) fluorescence overtime. A combination of chymotrypsin-like (CT-L, Suc-LLVY-AMC), tryptic-like (T-L, Boc-LRR-AMC) and caspase-like (Casp-L, Z-LLE-AMC) peptide substrates were used in equal amounts to screen compounds for overall 20S activity.
Pure human 20S proteasome was pre-treated with 3, 10 or 30 μM of one of the analogues or DMSO (vehicle control) for 15 min at 37° C. To each sample was then added a mixture of the three substrates (13.3 μM each). The release of AMC was monitored as fluorescence overtime for 1 h and the resulting 20S activity changes were determined by comparing to the untreated 20S and calculating the fold-increase in activity for each analogue at a given concentration (Table 1, 30 μM).
(§3) After analyzing the results in Table 1, three of the most promising analogues were selected for further studies into their 20S activity. Compounds 10, 2 and 18 were selected to be carried forward based on their fold increase and the highest Max-Fold activities. […] These compounds were then tested to obtain a full concentration—response (FIG. 1) of their activities towards the 20S proteasome using each of the three substrates for the three catalytic sites individually and the combination of the three substrates. This was done to ensure that each of the selected compounds activate the 20S proteasome at all three catalytic sites, which is critical for effective IDP degradation, as these proteins are likely to contain multiple cleavage sites for each.
(§4) Using the data in FIG. 1, the concentration at which 20S activity was doubled (AC200) was calculated for each compound using each substrate and the combination of the three substrates (Table 2).

[1] = system: T2, human 20S proteasome, caspase-like (Casp-L) site; experiment: Fluorogenic peptide degradation 20S proteasome activity assay, Z-LLE-AMC (Casp-L activity); details: Z-LLE-AMC substrate
T2 construct: purchased Boston Biochem, Inc. (Cambridge, MA)
Method: as §1, §2, §3, §4

[2] = system: T3, human 20S proteasome, chymotrypsin-like (CT-L) site; experiment: Fluorogenic peptide degradation 20S proteasome activity assay, Suc-LLVY-AMC (CT-L activity); details: Suc-LLVY-AMC substrate
T3 construct: purchased Boston Biochem, Inc. (Cambridge, MA)
Method: as §1, §2, §3, §4

[3] = system: T4, human 20S proteasome, tryptic-like (T-L) site; experiment: Fluorogenic peptide degradation 20S proteasome activity assay, Boc-LRR-AMC (T-L activity); details: Boc-LRR-AMC substrate
T4 construct: purchased Boston Biochem, Inc. (Cambridge, MA)
Method: as §1, §2, §3, §4

[4] = combination of the three substrates
[5] = combination of the three substrates, 1.25-40 μM titration

## c1ccc(CN2C(c3ccccc3)=Nc3ccccc3C2c2ccccc2)cc1 (centres unmarked) [Compound 1, 3-Benzyl-2,4-diphenyl-3,4-dihydroquinazoline]
Human 20S proteasome
  Fold increase over vehicle (30 μM), enhancement of 20S activity: 4 fold

## COc1ccc2c(c1)N=C(c1ccccc1)N(Cc1ccccc1)C2c1ccccc1 (centres unmarked) [Compound 2]
[1]
  AC200, Casp-L: 5.6 µM
  Max Fold, Casp-L: 13.4 fold
[2]
  AC200, CT-L: 12.9 µM
  Max Fold, CT-L: 5.6 fold
[3]
  AC200, T-L: 5.0 µM
  Max Fold, T-L: 11.7 fold
Human 20S proteasome
  Fold increase over vehicle (30 μM), enhancement of 20S activity: 7.9 fold
Human 20S proteasome; [4]
  concentration at which 20S activity was doubled in the combination (in words): low μM concentrations
Human 20S proteasome; [5]
  AC200 (concentration at which 20S activity was doubled), Combo: 2.0 µM
  Max Fold, Combo: 10.1 fold

## Cc1ccc2c(c1)N=C(c1ccccc1)N(Cc1ccccc1)C2c1ccccc1 (centres unmarked) [Compound 3, 3-Benzyl-7-methyl-2,4-diphenyl-3,4-dihydroquinazoline]
Human 20S proteasome
  Fold increase over vehicle (30 μM), enhancement of 20S activity: 8.1 fold

## CCCCCc1ccc2c(c1)N=C(c1ccccc1)N(Cc1ccccc1)C2c1ccccc1 (centres unmarked) [Compound 4, 3-Benzyl-7-pentyl-2,4-diphenyl-3,4-dihydroquinazoline]
Human 20S proteasome
  Fold increase over vehicle (30 μM), enhancement of 20S activity: 2.8 fold

## COc1ccc2c(c1)N=C(C1CCCCC1)N(Cc1ccccc1)C2c1ccccc1 (centres unmarked) [Compound 5, 3-Benzyl-2-cyclohexyl-7-methoxy-4-phenyl-3,4-dihydroquinazoline]
Human 20S proteasome
  Fold increase over vehicle (30 μM), enhancement of 20S activity: 6.5 fold

## COc1ccc2c(c1)N=C(C1CC1)N(Cc1ccccc1)C2c1ccccc1 (centres unmarked) [Compound 6]
Human 20S proteasome
  Fold increase over vehicle (30 μM), enhancement of 20S activity: 2.7 fold

## COc1ccc2c(c1)N=C(C(C)C)N(Cc1ccccc1)C2c1ccccc1 (centres unmarked) [Compound 7]
Human 20S proteasome
  Fold increase over vehicle (30 μM), enhancement of 20S activity: 2.3 fold

## CCCCCC1=Nc2cc(OC)ccc2C(c2ccccc2)N1Cc1ccccc1 (centres unmarked) [Compound 8]
Human 20S proteasome
  Fold increase over vehicle (30 μM), enhancement of 20S activity: 2.8 fold

## COc1ccc2c(c1)N=C(C)N(Cc1ccccc1)C2c1ccccc1 (centres unmarked) [Compound 9]
Human 20S proteasome
  Fold increase over vehicle (30 μM), enhancement of 20S activity: 1.8 fold

## COc1ccc2c(c1)N=C(c1ccccc1)N(c1ccccc1)C2c1ccccc1 (centres unmarked) [Compound 10]
[1]
  AC200, Casp-L: 5.8 µM
  Max Fold, Casp-L: 15.3 fold
[2]
  AC200, CT-L: 8.1 µM
  Max Fold, CT-L: 6.7 fold
[3]
  AC200, T-L: 2.5 µM
  Max Fold, T-L: 15.0 fold
Human 20S proteasome
  Fold increase over vehicle (30 μM), enhancement of 20S activity: 9.5 fold
Human 20S proteasome; [4]
  concentration at which 20S activity was doubled in the combination (in words): low μM concentrations
Human 20S proteasome; [5]
  Max Fold, Combo: 11.1 fold

## COc1ccc2c(c1)N=C(c1ccccc1)N(c1ccccn1)C2c1ccccc1 (centres unmarked) [Compound 11, 7-Methoxy-2,4-diphenyl-3-(2-pyridyl)-3,4-dihydroquinazoline]
Human 20S proteasome
  Fold increase over vehicle (30 μM), enhancement of 20S activity: 6.9 fold

## COc1ccc2c(c1)N=C(c1ccccc1)N(c1cccnc1)C2c1ccccc1 (centres unmarked) [Compound 12]
Human 20S proteasome
  Fold increase over vehicle (30 μM), enhancement of 20S activity: 5.9 fold
